In paper PMC5923123, “In Vitro and In Vivo Efficacy of a Novel and Long-Acting Fungicidal Azole, PC1244, on Aspergillus fumigatus Infection” (Antimicrobial Agents and Chemotherapy, 2018):
Values after ≈ are worked out from the molar mass of the structure shown. Where two headings read alike, the source gives them in different places.

Columns and labels:
[1] = test system: sterol composition of A. fumigatus (NCPF2010); experiment: A. fumigatus sterol analysis (GC-MS); format: cell-based, Aspergillus fumigatus; details: 2 h
[2] = test system: A. fumigatus (ATCC 13073 [strain NIH 5233]); experiment: MIC against the strain used in vivo; format: cell-based; details: Aspergillus fumigatus, ATCC13073
[3] = test system: A. fumigatus (ATCC 13073 [strain NIH 5233]); experiment: In vivo antifungal activity, late intervention (intranasal, days 1-3 postinfection), temporarily neutropenic mice; details: for inhibition of GM in serum: 0.08 mg/ml (2.8 μg/mouse) intranasal once daily days 1-3; for inhibition of fungal load (CFU) in the lung vs vehicle: 0.08 mg/ml, 35 μl intranasal once daily days 1-3 postinfection
[4] = test system: Aspergillus carbonarius (ATCC 8740); experiment: CLSI MIC; format: cell-based
[5] = test system: Aspergillus niger (ATCC 1015); experiment: EUCAST MIC; format: cell-based
[6] = test system: Penicillium chrysogenum (ATCC 9480); experiment: CLSI MIC; format: cell-based; details: ATCC9480, 1 strain
[7] = test system: Candida albicans (20240.047, ATCC 10231); experiment: CLSI MIC; format: cell-based
[8] = test system: Candida krusei (ATCC 6258); experiment: CLSI MIC; format: cell-based; details: Pichia kudriavzevii, ATCC6258
[9] = test system: Candida parapsilosis (ATCC 22019); experiment: CLSI MIC; format: cell-based; details: ATCC22019, 1 strain, MIC = 50% inhibition of fungal growth
[10] = test system: Chaetomium globosum (ATCC 44699); experiment: CLSI MIC; format: cell-based; details: ATCC44699, 1 strain
[11] = test system: Cryptococcus gattii (clinical isolate); experiment: EUCAST MIC (EDef 7.2); format: cell-based; details: 1 strain
[12] = test system: Lichtheimia corymbifera (ATCC 7909); experiment: CLSI MIC; format: cell-based; details: ATCC7909, 1 strain
[13] = test system: Mucor circinelloides (ATCC 8542); experiment: CLSI MIC; format: cell-based; details: ATCC8542, 1 strain
23 pathogenic fungi = format: cell-based; details: broad spectrum of pathogenic fungi
[14] = in vivo
in vivo = details: mouse
A. fumigatus (NCPF2010) = experiment: Broth microdilution MIC (96-well) preceding MFC determination; details: Aspergillus fumigatus
Description: After the MIC for each compound was recorded, fungicidal activity was determined as previously described ([35]). Briefly, medium from each well (100 μl/well) was removed after pipetting up and down five times and subcultured onto 4% Sabouraud dextrose agar plates. The plates were incubated (35°C with ambient air) for 48 h, and the numbers of CFU were counted for each compound concentration. The minimum fungicidal concentration (MFC) was determined as the lowest compound concentration yielding 3 colonies or less.

A. fumigatus CYP51A = A. fumigatus CYP51A (Aspergillus fumigatus, UniProt Q4WNT5); experiment: CYP51 reconstitution assay (sterol 14α-demethylase inhibition)
Sequence of A. fumigatus CYP51A (Q4WNT5 whole entry): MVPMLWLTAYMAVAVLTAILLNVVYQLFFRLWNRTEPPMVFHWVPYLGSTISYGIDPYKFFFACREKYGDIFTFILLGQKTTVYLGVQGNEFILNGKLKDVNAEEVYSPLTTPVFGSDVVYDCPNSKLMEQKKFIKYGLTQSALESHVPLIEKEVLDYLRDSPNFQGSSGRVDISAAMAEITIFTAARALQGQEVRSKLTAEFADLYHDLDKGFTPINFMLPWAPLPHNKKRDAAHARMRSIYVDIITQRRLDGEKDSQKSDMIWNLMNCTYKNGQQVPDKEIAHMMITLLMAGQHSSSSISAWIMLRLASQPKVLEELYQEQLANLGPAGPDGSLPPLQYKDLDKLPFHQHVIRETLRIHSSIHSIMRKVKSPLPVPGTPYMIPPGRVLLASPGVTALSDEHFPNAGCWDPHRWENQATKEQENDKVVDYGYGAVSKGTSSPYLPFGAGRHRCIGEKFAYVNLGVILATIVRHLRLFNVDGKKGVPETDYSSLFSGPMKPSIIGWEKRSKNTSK
Description: (§1) The test agent was added to a mixture of 0.5 μM CYP51, 1 μM A. fumigatus cytochrome P450 reductase isoenzyme 1 (AfCPR1), 50 μM eburicol, 4% (wt/vol) 2-hydroxypropyl-β-cyclodextrin, 0.4 mg/ml isocitrate dehydrogenase, 25 mM trisodium isocitrate, 50 mM NaCl, 5 mM MgCl2, and 40 mM 3-(N-morpholino) propanesulfonic acid (MOPS; pH of ∼7.2). The mixtures were then incubated at 37°C for 10 min prior to initiation with 4 mM β-NADPHNa4, followed by shaking for 20 min at 37°C. Sterol metabolites were recovered by extraction with ethyl acetate followed by derivatization with 0.1 ml N,O-bis(trimethylsilyl)trifluoroacetamide: trimethylchlorosilane (99:1) and 0.3 ml anhydrous pyridine prior to analysis by gas chromatography-mass spectrometry.

A. fumigatus CYP51B = A. fumigatus CYP51B (Aspergillus fumigatus, UniProt E9QY26); experiment: as above
Sequence of A. fumigatus CYP51B (E9QY26 whole entry): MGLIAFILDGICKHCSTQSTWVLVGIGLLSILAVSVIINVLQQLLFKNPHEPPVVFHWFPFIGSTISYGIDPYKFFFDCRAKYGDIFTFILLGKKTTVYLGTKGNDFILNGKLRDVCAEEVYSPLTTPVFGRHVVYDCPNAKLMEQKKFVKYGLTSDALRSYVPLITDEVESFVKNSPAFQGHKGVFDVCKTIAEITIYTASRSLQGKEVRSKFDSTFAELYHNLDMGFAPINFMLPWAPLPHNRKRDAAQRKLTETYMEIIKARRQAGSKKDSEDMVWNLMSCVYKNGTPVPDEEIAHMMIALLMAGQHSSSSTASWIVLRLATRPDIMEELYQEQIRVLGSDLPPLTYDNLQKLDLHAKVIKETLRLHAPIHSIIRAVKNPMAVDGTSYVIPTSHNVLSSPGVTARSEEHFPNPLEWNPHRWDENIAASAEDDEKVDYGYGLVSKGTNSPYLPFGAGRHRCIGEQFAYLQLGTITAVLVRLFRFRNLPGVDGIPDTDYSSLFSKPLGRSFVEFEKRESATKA
Description: as §1

[15] = test system: A. fumigatus (ATCC 13073 [strain NIH 5233]); experiment: In vivo extended prophylaxis (intranasal, days -7 to 0) in infected immunocompromised mice; details: 0.0032 mg/ml (0.11 μg/mouse), compared to late intervention at the same dose
Description: The test agents, suspended in physiological saline, were administered intranasally (35 μl, approximately 17.5 μl each in each nostril) once daily on days 1, 2, and 3 postinfection. […] As the injection volume was fixed and the body weight changed every day, especially after infection, the accurate dose unit was the number of micrograms per mouse. However, as the average body weight after immunosuppression and just before infection was 20 g, we also calculated the estimated dose in milligrams per kilogram.

[16] = test system: A. fumigatus (ATCC 13073); experiment: In vivo persistence of action: single intranasal prophylactic dose 16 h before inoculation; details: PC1244 0.4 mg/ml, POS 0.8 mg/ml intranasal 16 h before inoculation; lungs 8 h after
A. fumigatus ATCC 204305 = experiment: EUCAST MIC, quality control strain; format: cell-based; details: Aspergillus fumigatus, ATCC204305; quality control strain ATCC 204305
Description: The antifungal activity of PC1244 was further evaluated against 96 clinical isolates (obtained from Saint Louis Hospital, Paris, France [50 isolates], and the North West England Mycology Reference Centre, Manchester, UK [46 isolates]). […] .

[17] = test system: Candida albicans AR (20183.073, 20186.025); experiment: CLSI MIC; format: cell-based
[18] = test system: Candida glabrata (ATCC 36583, R363); experiment: CLSI MIC; format: cell-based; details: Nakaseomyces glabratus
A. fumigatus isolates = test system: A. fumigatus isolates; design: method as in PMID 12202554; details: MFC = lowest dilution yielding less than 3 colonies; cited from earlier work
[19] = ATCC8740, CLSI, 1 strain, read-out: MIC
[20] = ATCC1015, EUCAST, 1 strain, read-out: MIC
[21] = ATCC10231, CLSI, 2 strains, mean MIC, MIC = 50% inhibition of fungal growth, read-out: MIC

SMILES: Cc1cc(N2CCN(c3ccc(C(=O)N[C@H]4CCCC[C@@H]4O)cc3)CC2)ccc1OC[C@@H]1CO[C@@](Cn2cncn2)(c2ccc(F)cc2F)C1 [PC1244, 4-(4-(4-(((3R,5R)-5-((1H-1,2,4-triazol-1-yl)methyl)-5-(2,4-difluorophenyl)tetrahydrofuran-3-yl)methoxy)-3-methylphenyl)piperazin-1-yl)-N-((1S,2S)-2-hydroxycyclohexyl)benzamide]
- Sterol composition: Eburicol ([1]; compound at 0.0001 μg/ml): 2.5 ± 1.1%
- Sterol composition: Ergost-5,7-dienol ([1]; compound at 0.0001 μg/ml): 4.6 ± 1.8%
- Sterol composition: Ergosterol ([1]; compound at 0.0001 μg/ml): 91.3 ± 0.1%
- Sterol composition: Lanosterol ([1]; compound at 0.0001 μg/ml): 1.7 ± 0.7%
- Sterol composition: Eburicol ([1]; compound at 0.001 μg/ml): 3.4 ± 1.2%
- Sterol composition: Ergost-5,7-dienol ([1]; compound at 0.001 μg/ml): 4.6 ± 0.8%
- Sterol composition: Ergosterol ([1]; compound at 0.001 μg/ml): 89.2 ± 0.2%
- Sterol composition: Lanosterol ([1]; compound at 0.001 μg/ml): 2.8 ± 0.6%
- Sterol composition: Eburicol ([1]; compound at 0.01 μg/ml): 14.7 ± 1.5%
- Sterol composition: Ergost-5,7-dienol ([1]; compound at 0.01 μg/ml): 0%
- Sterol composition: Ergosterol ([1]; compound at 0.01 μg/ml): 76.8 ± 2.6%
- Sterol composition: Lanosterol ([1]; compound at 0.01 μg/ml): 8.5 ± 1.1%
- Sterol composition: Eburicol ([1]; compound at 0.1 μg/ml): 26.7 ± 0.8%
- Sterol composition: Ergost-5,7-dienol ([1]; compound at 0.1 μg/ml): 0%
- Sterol composition: Ergosterol ([1]; compound at 0.1 μg/ml): 61.0 ± 1.6%
- Sterol composition: Lanosterol ([1]; compound at 0.1 μg/ml): 12.3 ± 0.8%
- Sterol composition: Eburicol ([1]; compound at 1 μg/ml): 28.2 ± 1.3%
- Sterol composition: Ergost-5,7-dienol ([1]; compound at 1 μg/ml): 0%
- Sterol composition: Ergosterol ([1]; compound at 1 μg/ml): 58.7 ± 2.2%
- Sterol composition: Lanosterol ([1]; compound at 1 μg/ml): 13.1 ± 0.9%
- MIC ([2]; strain ATCC 13073, read-out: MIC): 0.063 µg/mL (≈ 0.0917 µM)
- inhibition of GM in serum [3]: 82%
- inhibition of fungal load (CFU) in the lung vs vehicle [3]: 97%
- CXCL1 level in BALF ([3]; infection-dependent increase): reduced
- interleukin-6 (IL-6) level in serum ([3]; infection-dependent increase): reduced
- tumor necrosis factor alpha (TNF-α) level in serum ([3]; infection-dependent increase): reduced
- ID50 (GM in BALF) fold lower than that of POS ([3]; mouse, in vivo): 6.7 fold
- A. fumigatus PCR products in lung tissue ([3]; pilot study): inhibited the accumulation of PCR products
- MIC [4, 19]: 0.063 µg/mL (≈ 0.0917 µM)
- MIC [5, 20]: 0.5 µg/mL (≈ 0.728 µM)
- MIC [6]: 0.13 µg/mL (≈ 0.189 µM)
- MIC [7, 21]: < 0.0078 µg/mL
- MIC ([8]; CLSI, 1 strain, read-out: MIC): 0.13 µg/mL (≈ 0.189 µM)
- MIC [9]: 0.25 µg/mL (≈ 0.364 µM)
- MIC [10]: 0.063 µg/mL (≈ 0.0917 µM)
- MIC [11]: 0.5 µg/mL (≈ 0.728 µM)
- MIC [12]: 1 µg/mL (≈ 1.46 µM)
- MIC [13]: 2 µg/mL (≈ 2.91 µM)
- MIC Range (23 pathogenic fungi): <0.0078 to 2 µg/mL
- oral availability [14]: much less oral availability than posaconazole
- concentration at 2 h (in vivo): 111 to 303 ng/mL
- concentration at 8 h (in vivo): 249 to 339 ng/mL
- concentration at 24 h (in vivo): 41.5 to 50.7 ng/mL
- MIC (A. fumigatus (NCPF2010)): 0.063 µg/mL (≈ 0.0917 µM)
- IC50 (A. fumigatus CYP51A): 0.27 µM
- Ki (A. fumigatus CYP51A): < 0.001 µM
- IC50 (A. fumigatus CYP51B): 0.23 µM
- Ki (A. fumigatus CYP51B): < 0.001 µM
- effect on fungal load and biomarkers [15]: high levels of inhibitory effects
- GM levels in the lung [16]: significant inhibition
- number of CFU in the lung [16]: significant inhibition

SMILES: CC[C@@H]([C@H](C)O)n1ncn(-c2ccc(N3CCN(c4ccc(OC[C@@H]5CO[C@@](Cn6cncn6)(c6ccc(F)cc6F)C5)cc4)CC3)cc2)c1=O [Posaconazole, posaconazole]
- MIC (A. fumigatus ATCC 204305): 0.25 µg/mL (≈ 0.357 µM)
- Sterol composition: Eburicol ([1]; compound at 0.0001 μg/ml): 2.2 ± 1.2%
- Sterol composition: Ergost-5,7-dienol ([1]; compound at 0.0001 μg/ml): 3.3 ± 1.9%
- Sterol composition: Ergosterol ([1]; compound at 0.0001 μg/ml): 94.5 ± 0.1%
- Sterol composition: Lanosterol ([1]; compound at 0.0001 μg/ml): 0%
- Sterol composition: Eburicol ([1]; compound at 0.001 μg/ml): 5.9 ± 0.5%
- Sterol composition: Ergost-5,7-dienol ([1]; compound at 0.001 μg/ml): 3.9 ± 0.6%
- Sterol composition: Ergosterol ([1]; compound at 0.001 μg/ml): 87.2 ± 0.7%
- Sterol composition: Lanosterol ([1]; compound at 0.001 μg/ml): 3.0 ± 0.9%
- Sterol composition: Eburicol ([1]; compound at 0.01 μg/ml): 18.3 ± 1.1%
- Sterol composition: Ergost-5,7-dienol ([1]; compound at 0.01 μg/ml): 0%
- Sterol composition: Ergosterol ([1]; compound at 0.01 μg/ml): 74.7 ± 0.8%
- Sterol composition: Lanosterol ([1]; compound at 0.01 μg/ml): 7.0 ± 0.3%
- Sterol composition: Eburicol ([1]; compound at 0.1 μg/ml): 23.4 ± 0.8%
- Sterol composition: Ergost-5,7-dienol ([1]; compound at 0.1 μg/ml): 0%
- Sterol composition: Ergosterol ([1]; compound at 0.1 μg/ml): 67.8 ± 0.3%
- Sterol composition: Lanosterol ([1]; compound at 0.1 μg/ml): 8.8 ± 0.5%
- Sterol composition: Eburicol ([1]; compound at 1 μg/ml): 23.8 ± 1.3%
- Sterol composition: Ergost-5,7-dienol ([1]; compound at 1 μg/ml): 0%
- Sterol composition: Ergosterol ([1]; compound at 1 μg/ml): 67.4 ± 1.5%
- Sterol composition: Lanosterol ([1]; compound at 1 μg/ml): 8.8 ± 0.4%
- inhibition of GM in serum [3]: −11%
- inhibition of fungal load (CFU) in the lung vs vehicle [3]: 39%
- log10 ID fold higher than that of PC1244 ([3]; mouse, in vivo): 143 fold
- MIC [4, 19]: 0.063 µg/mL (≈ 0.0899 µM)
- MIC [5, 20]: 0.2 µg/mL (≈ 0.285 µM)
- MIC [6]: 0.13 µg/mL (≈ 0.186 µM)
- MIC [7, 21]: 0.081 µg/mL (≈ 0.116 µM)
- MIC ([17]; CLSI, 2 azole (fluconazole and voriconazole) resistant strains, MIC = 50% inhibition, two individual values for PC1244, read-out: MIC): 8.13 µg/mL (≈ 11.6 µM)
- MIC ([18]; ATCC36583, CLSI, 2 strains, MIC = 50% inhibition, two individual values for PC1244, read-out: MIC): 0.5 µg/mL (≈ 0.713 µM)
- MIC [9]: 0.25 µg/mL (≈ 0.357 µM)
- MIC [10]: 0.25 µg/mL (≈ 0.357 µM)
- MIC [11]: 0.5 µg/mL (≈ 0.713 µM)
- MIC [12]: > 8 µg/mL
- MIC [13]: > 8 µg/mL
- range of MFCs for inhibition of 90% of isolates tested (MFC90) (A. fumigatus isolates): 0.06 to 2 µg/mL
- concentration at 24 h (in vivo): 15.6 to 125 ng/mL
- MIC (A. fumigatus (NCPF2010)): 0.125 µg/mL (≈ 0.178 µM)
- Ki (A. fumigatus CYP51A): < 0.001 µM
- Ki (A. fumigatus CYP51B): < 0.001 µM
- number of CFU in the lung [16]: did not

SMILES: C[C@@H](c1ncncc1F)[C@](O)(Cn1cncn1)c1ccc(F)cc1F [Voriconazole, voriconazole]
- MIC [2]: 0.5 µg/mL (≈ 1.43 µM)
- MIC ([4]; ATCC8740): 0.5 µg/mL (≈ 1.43 µM)
- MIC ([5]; ATCC1015): 1 µg/mL (≈ 2.86 µM)
- MIC [6]: 2 µg/mL (≈ 5.73 µM)
- MIC ([7]; ATCC10231): 0.14 µg/mL (≈ 0.401 µM)
- MIC [17]: 10 µg/mL (≈ 28.6 µM)
- MIC ([18]; ATCC36583): 8.13 µg/mL (≈ 23.3 µM)
- MIC [8]: 0.25 µg/mL (≈ 0.716 µM)
- MIC [10]: 1 µg/mL (≈ 2.86 µM)
- MIC [12]: > 8 µg/mL
- MIC [13]: > 8 µg/mL
- range of MFCs for inhibition of 90% of isolates tested (MFC90) (A. fumigatus isolates): 0.5 to 4 µg/mL
- MIC (A. fumigatus (NCPF2010)): 1.67 ± 0.58 µg/mL (≈ 4.78 µM)
